From ChEMBL document CHEMBL3992516, “Synthesis and SAR evaluation of novel thioridazine derivatives active against drug-resistant tuberculosis” (Eur J Med Chem, 2017) come the findings set out here.

Series [1] deals with Mycobacterium tuberculosis. As to the kind of experiment: Antimycobacterial activity against Mycobacterium tuberculosis H37Rv ATCC 27294 incubated for 7 days measured 24 hrs post incubation by resazurin microtiter assay. The class given is functional. (Resazurin is reduced to fluorescent resorufin, in cell work by metabolically active cells.)
In series [2] the test system is Mycobacterium tuberculosis. The experiment in a line: Antimycobacterial activity against Mycobacterium tuberculosis MC2 7000 by microplate alamar blue assay. The class given is functional.
Series [3] deals with Mycolicibacterium smegmatis. As to the kind of experiment: Antimycobacterial activity against Mycobacterium smegmatis MC2 155 ATCC 700084 by microplate alamar blue assay. Type of series: functional.
The subject of series [4] is Mycobacterium tuberculosis. As to the kind of experiment: Antimycobacterial activity against drug-succeptible Mycobacterium tuberculosis CF73 incubated for 7 days measured 24 hrs post incubation by resazurin microtiter assay. The class given is functional.
The test system of another series is MRC5. As to the kind of experiment: Cytotoxicity against human MRC5 cells assessed as decrease in cell viability after 24 hrs by resazurin reduction assay. Type of series: cell-based. The following applies: MRC5, 24 h.
Series [5] relates to Mycolicibacterium smegmatis. As to the kind of experiment: Inhibition of efflux pump in Mycobacterium smegmatis assessed as increase in accumulation of ethidium bromide at 0.25 times MIC measured every min for 60 mins by fluorimetric method.
Another series has as its system J774. The experiment in a line: Cytotoxicity against mouse J774 cells assessed as decrease in cell viability after 24 hrs by resazurin reduction assay. The class given is cell-based. The following applies: J774, 24 h.
Series [6] in a line: Selectivity index, ratio of IC50 for human MRC5 cells to MIC90 for drug-succeptible Mycobacterium tuberculosis CF73. The class given is toxicity. The following applies: read-out: Selectivity Index.

Each structure is given as a SMILES string. Values after ≈ are worked out from the molar mass of the structure shown. Active and inactive are the calls of the source. No cut-off for these calls is given here.

Usually MIC90 stands for an inhibitory concentration at the 90% level, which refers to growth in some studies and to a panel of isolates in others. Higher therefore signals lower susceptibility. The MIC is the lowest concentration that inhibits growth of the organism. Low values mean inhibition by little substance, high ones a need for much substance. The IC50 is the concentration that gives 50% inhibition.

On to `CSc1ccc2c(c1)N(CCCN1CCN(C3C4CC5CC(C4)CC3C5)CC1)c1ccccc1S2` (stereo unspecified), for which the MIC90 in series [1] worked out at 43 µg/mL (≈ 85 µM); in series [4], 98 µg/mL (≈ 194 µM). For the same compound, the MIC in series [2] was above 64 µg/mL; in series [3] it was 4 µg/mL (≈ 7.91 µM).

Regarding `CSc1ccc2c(c1)N(C(=O)CN1CCN(C)CC1)c1ccccc1S2`, the MIC in series [2] and in series [3] was above 64 µg/mL throughout.

For the compound `Clc1ccc2c(c1)N(CCC1CCCCN1)c1ccccc1S2` (stereo unspecified), the MIC90 stood at 26 µg/mL (≈ 75.4 µM) in series [1] and 11 µg/mL (≈ 31.9 µM) in series [4]. Further, the MIC in series [2] was 4 µg/mL (≈ 11.6 µM); in series [3] it was 16 µg/mL (≈ 46.4 µM). Further, the values for the IC50 in the series on MRC5 and in the series with J774 were 10 µg/mL (≈ 29 µM) and 10.7 µg/mL (≈ 31 µM), respectively. For the same compound, the inhibition entry in series [5] was “inactive”. The selectivity ratio in series [6] amounted to 0.9.

In the case of `c1ccc(N2CCN(CCCN3c4ccccc4Sc4ccccc43)CC2)cc1`, the MIC in series [2] and in series [3] was above 64 µg/mL in each case.

Take `CN1CCN(CCCn2ccc3ccccc32)CC1`: the MIC in series [2] and in series [3] was above 64 µg/mL throughout.

Take `c1ccc2c(c1)ccn2CCC1CCCCN1` (stereo unspecified): the values for the MIC90 in series [1] and in series [4] were 2.9 µg/mL (≈ 12.7 µM) and 1 µg/mL (≈ 4.38 µM), respectively. The IC50 in the series on MRC5 was 15 µg/mL (≈ 65.7 µM); in the series on J774, 7.3 µg/mL (≈ 32 µM). The MIC in series [3] turned out to be 1.6 µg/mL (≈ 7.01 µM). In addition, the inhibition result in series [5] is “inactive”. Moreover, the selectivity ratio in series [6] was 15.

Regarding `CSc1ccc2c(c1)N(CCC1CCCCN1)c1ccccc1S2` (stereo unspecified), the MIC90 in series [1] was 100 µg/mL (≈ 280 µM); in series [4], above 100 µg/mL. Also, the MIC in series [2] was found to be 8 µg/mL (≈ 22.4 µM); in series [3] it was 16 µg/mL (≈ 44.9 µM).

With `CN1CCCCC1CCn1cnc2ccccc21` (stereo unspecified), the MIC in series [2] and in series [3] was above 64 µg/mL each time.

In the case of `NNC(=O)c1ccncc1` [ISONIAZID], the MIC90 in series [1] and in series [4] was 0.03 µg/mL (≈ 0.219 µM) in each case. Also, the MIC in series [2] amounted to 0.125 µg/mL (≈ 0.911 µM); in series [3], 4 µg/mL (≈ 29.2 µM).

`CN1CCCCC1CCn1c2ccccc2c2ccccc21` (stereo unspecified): the MIC90 in series [1] was determined as 60 µg/mL (≈ 205 µM); in series [4] it was 39 µg/mL (≈ 133 µM). Besides, the MIC is 64 µg/mL (≈ 219 µM) in series [2] and above 64 µg/mL in series [3].

For the compound `c1ccc2c(c1)ncn2CCC1CCCCN1` (stereo unspecified), the MIC90 is 100 µg/mL (≈ 436 µM) in series [1] and above 100 µg/mL in series [4]. Further, the MIC in series [2] and in series [3] was above 64 µg/mL throughout.

Take `CSc1ccc2c(c1)N(CCCN1CCN(c3ccccc3)CC1)c1ccccc1S2`: the MIC in series [2] and in series [3] was above 64 µg/mL in each case.

On to `c1ccc2c(c1)c1ccccc1n2CCC1CCCCN1` (stereo unspecified), for which the MIC in series [2] and in series [3] was above 64 µg/mL throughout.

For `CSc1ccc2c(c1)N(CCC1CCCCN1C)c1ccccc1S2` (stereo unspecified) [THIORIDAZINE], the MIC90 came to 10 µg/mL (≈ 27 µM) in series [1] and 8 µg/mL (≈ 21.6 µM) in series [4]. For the same compound, the values for the MIC in series [2] and in series [3] were 8 µg/mL (≈ 21.6 µM) and 16 µg/mL (≈ 43.2 µM), respectively. Further, the IC50 in the series on MRC5 came to 8.2 µg/mL (≈ 22.1 µM); in the series with J774 it was 4.1 µg/mL (≈ 11.1 µM). The selectivity ratio in series [6] is 1.

Take `CN1CCCCC1CCN1c2ccccc2Sc2ccc(Cl)cc21` (stereo unspecified): the MIC90 in series [1] was 19 µg/mL (≈ 52.9 µM); in series [4], 16 µg/mL (≈ 44.6 µM). Besides, the MIC in series [2] was 8 µg/mL (≈ 22.3 µM); in series [3], 16 µg/mL (≈ 44.6 µM). In addition, the IC50 was determined as 13 µg/mL (≈ 36.2 µM) with MRC5 and 8.4 µg/mL (≈ 23.4 µM) in the series on J774. Moreover, the selectivity ratio in series [6] was 0.8.

For `CN1CCCCC1CCN1c2ccccc2Sc2ccccc21` (stereo unspecified), the MIC90 in series [1] was above 64 µg/mL; in series [4] it was 47 µg/mL (≈ 145 µM). In addition, the MIC in series [2] was 16 µg/mL (≈ 49.3 µM); in series [3] it was 32 µg/mL (≈ 98.6 µM).

For the compound `Clc1ccc2c(c1)N(CCCN1CCN(c3ccccc3)CC1)c1ccccc1S2`, the MIC in series [2] and in series [3] was above 64 µg/mL throughout.

Regarding `c1ccc2c(c1)Sc1ccccc1N2CCC1CCCCN1` (stereo unspecified), the MIC90 in series [1] is above 64 µg/mL; in series [4] it was 47 µg/mL (≈ 151 µM). The MIC in series [2] and in series [3] was above 64 µg/mL throughout.

As to `Clc1ccc2c(c1)N(CCCN1CCSCC1)c1ccccc1S2`, the MIC in series [2] and in series [3] was above 64 µg/mL throughout.

On to `CSc1ccc2c(c1)N(CCCN1CCSCC1)c1ccccc1S2`, for which the MIC in series [2] and in series [3] was above 64 µg/mL throughout.

For the compound `CSc1ccc2c(c1)N(CCCN1CCN(C34CC5CC(CC(C5)C3)C4)CC1)c1ccccc1S2`, the MIC in series [2] and in series [3] was 64 µg/mL (≈ 127 µM) each time.

Take `CCCN1CCCCC1CCN1c2ccccc2Sc2ccc(SC)cc21` (stereo unspecified): the MIC90 in series [1] worked out at 45 µg/mL (≈ 113 µM). Moreover, the MIC in series [2] is 64 µg/mL (≈ 161 µM); in series [3] it was above 64 µg/mL.

Take `CO[C@H]1/C=C/O[C@@]2(C)Oc3c(C)c(O)c4c(O)c(c(/C=N/N5CCN(C)CC5)c(O)c4c3C2=O)NC(=O)/C(C)=C\C=C\[C@H](C)[C@H](O)[C@@H](C)[C@@H](O)[C@@H](C)[C@H](OC(C)=O)[C@@H]1C` [RIFAMPIN]: the MIC90 was determined as 0.3 µg/mL (≈ 0.365 µM) in series [1] and 8 µg/mL (≈ 9.72 µM) in series [4]. The MIC in series [2] was determined as 0.25 µg/mL (≈ 0.304 µM).

`CSc1ccc2c(c1)N(C(=O)CN1CCCCC1)c1ccccc1S2`: the MIC90 in series [1] and in series [4] was above 100 µg/mL each time.

As for `CSc1ccc2c(c1)N(CCC1CCCCN1C(C)C)c1ccccc1S2` (stereo unspecified), the MIC in series [2] and in series [3] was above 64 µg/mL in each case.

`CSc1ccc2c(c1)N(CCC1CCCCN1Cc1ccccc1)c1ccccc1S2` (stereo unspecified): the MIC90 is above 100 µg/mL in series [1] and 37 µg/mL (≈ 82.8 µM) in series [4]. Further, the MIC in series [2] was found to be 8 µg/mL (≈ 17.9 µM); in series [3], 16 µg/mL (≈ 35.8 µM).

As to `CN1CCN(CCCN2c3ccccc3Sc3ccccc32)CC1` [PERAZINE], the MIC90 is 100 µg/mL (≈ 295 µM) in series [1] and above 100 µg/mL in series [4]. Besides, the MIC in series [2] turned out to be 27 µg/mL (≈ 79.5 µM); in series [3], 64 µg/mL (≈ 189 µM). Further, in series [5], the inhibition result is “Active”.

`CSc1ccc2c(c1)N(CCCN1CCN(C)CC1)c1ccccc1S2`: the MIC90 in series [1] was 69 µg/mL (≈ 179 µM); in series [4], 27 µg/mL (≈ 70 µM). The MIC in series [2] is 27 µg/mL (≈ 70 µM); in series [3], 32 µg/mL (≈ 83 µM). Besides, the inhibition entry in series [5] was “Active”.
